8 compounds from ChEMBL document CHEMBL1268831, “Indole alkaloids from Ervatamia hainanensis with potent acetylcholinesterase inhibition activities” (Bioorg Med Chem Lett, 2010) can be followed below.

This assay deals with Acetylcholinesterase (Electrophorus electricus, UniProt O42275). Nature of the assay: Inhibition of electric eel AChE by Ellman's method.
Acetylcholinesterase, sequence (O42275 whole entry): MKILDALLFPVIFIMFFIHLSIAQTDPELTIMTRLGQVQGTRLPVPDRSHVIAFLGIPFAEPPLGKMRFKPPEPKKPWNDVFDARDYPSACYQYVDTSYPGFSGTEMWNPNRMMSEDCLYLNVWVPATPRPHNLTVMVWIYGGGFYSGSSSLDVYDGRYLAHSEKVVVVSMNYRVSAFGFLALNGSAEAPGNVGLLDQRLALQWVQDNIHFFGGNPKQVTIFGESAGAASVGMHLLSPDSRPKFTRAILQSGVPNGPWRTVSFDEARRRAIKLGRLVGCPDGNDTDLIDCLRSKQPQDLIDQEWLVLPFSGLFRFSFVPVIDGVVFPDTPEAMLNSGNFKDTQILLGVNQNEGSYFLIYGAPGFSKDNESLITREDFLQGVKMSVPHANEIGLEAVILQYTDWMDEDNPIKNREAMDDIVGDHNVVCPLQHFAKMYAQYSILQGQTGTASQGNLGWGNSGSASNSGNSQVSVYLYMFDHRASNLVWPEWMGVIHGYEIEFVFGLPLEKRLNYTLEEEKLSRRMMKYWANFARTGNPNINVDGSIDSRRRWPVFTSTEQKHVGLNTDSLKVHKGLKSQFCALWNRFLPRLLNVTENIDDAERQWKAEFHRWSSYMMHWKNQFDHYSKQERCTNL
In the case of `COC(=O)[C@@]12C[C@@H]3C[C@H]([C@@H](C)O)[C@@H]1N(CCc1c2[nH]c2ccc(OC)cc12)C3` [19(R)-HEYNEANINE], the IC50 – broadly, the point on the concentration scale where inhibition reaches its midpoint – was determined as 730 µM.
The value for `CC[C@H]1C[C@@H]2CN3CC[C@]4(O)C(=Nc5ccccc54)[C@](C(=O)OC)(C2)[C@H]13` [CORONARIDINE HYDROXYINDOLENINE] was above 1000 µM; that for `CC[C@H]1C[C@@H]2CN3CCc4c([nH]c5ccc(O)cc45)[C@](C(=O)OC)(C2)[C@H]13` was 29 µM; that for `C/C=C1/CN(C)[C@H]2Cc3c([nH]c4ccccc34)C(=O)C[C@H]1[C@@H]2C(=O)OC` [VOBASINE] was above 1000 µM.
The value for `COC(=O)[C@@]12C[C@@H]3C[C@H]([C@H](C)O)[C@@H]1N(CC[C@]1(O)C2=Nc2ccccc21)C3` [HEYNEANINE HYDROXYINDOLENINE] was above 1000 µM; that for `CC[C@H]1C[C@@H]2CN3CCc4c([nH]c5ccccc45)[C@](C(=O)OC)(C2)[C@H]13` [CORONARIDINE] was 8.6 µM.
`CC[C@H]1C[C@@H]2CN3CCc4c([nH]c5ccc(OC)cc45)[C@](C(=O)OC)(C2)[C@H]13` [VOACANGINE] came in with an IC50 of 4.4 µM.
In turn, `COC(=O)[C@@]12C[C@@H]3C[C@H]([C@H](C)O)[C@@H]1N(CCc1c2[nH]c2ccc(OC)cc12)C3` [VOACRISTINE] registered an IC50 of 420 µM.
